93 molecules from a melting point compilation (Tetko et al.; mined from patent text by program, amines drawn as free bases though some values may be those of a salt) can be followed below.

As usually defined, the melting point is the temperature of the solid-liquid transition.

Each structure is given as a SMILES string.

As for `O=C(CCl)c1cccnn1`, the melting point is 104 to 106 °C.

Molecule `COc1ccc(C2CNCc3ccc(C)cc32)cc1OC` (stereo not drawn) registered a melting point of 94 to 96 °C.

`Cc1cc(C)c(C)c(OCC(=O)O)c1` displayed a melting point of 129 to 130 °C.

Turning to `CC(=O)OCC(C(OC(C)=O)c1ccc(Br)cc1)[N+](=O)[O-]` (stereo not drawn), the melting point was 81 to 82 °C.

As for `COc1cc(N)c2nccc(C)c2c1Oc1ccc(F)cc1`, the melting point fell in the range of 143 to 144 °C.

In turn, `CCCCCCCCCCCCSCC(CO)NC(=O)CCCCCCCCCC` (stereo not drawn) had a melting point of 64 to 67 °C.

The molecule `COc1ccc2cc(CCC(C)=O)cc(F)c2c1` yielded a melting point of 69 to 70 °C.

Molecule `COc1ccc(CC(=O)O)c(C)c1OC` came in with a melting point of 102 to 104 °C.

`O=C1C(=O)c2ccccc2C2=C1SCC1(CCN(CCc3ccccc3)CC1)O2`: the melting point lay within 117 to 118 °C.

As to `Cc1ccc(NC(=O)C(F)(F)F)cc1C(F)(F)F`, the melting point lay within 72 to 74 °C.

Consider `CCn1c(-c2ccc(OC)c(OC)c2)cc(=S)n(C)c1=O`, for which the melting point lay in the range of 147 to 150 °C.

Take `CN(C)CCc1nnc2n1-c1ccc(Cl)cc1C(c1ccccc1Cl)=NC2`: the melting point fell in the range of 150 to 153 °C.

On to `CC1CC(=O)c2ccc(F)cc2O1` (stereo not drawn), for which the melting point lay within 42 to 47 °C.

Consider `O=C(NCc1ccc(Cl)c(Cl)c1)c1ccc2n1Cc1ccccc1N(C(=O)CSc1ccc(Br)cc1)C2`, for which the melting point was 150 °C.

Molecule `Cc1ccc(-c2ccc3c(c2)CC[C@H]2N(C)C(=O)CC[C@]32C)cc1` gave a melting point of 178 °C.

With `O=[N+]([O-])c1cc(C(F)(F)F)c(Cl)cc1NCP(=O)(O)O`, the melting point was 207 °C.

`Cc1oc2c(C)c(C)c(NC(=O)CC(C)(C)C)c(C)c2c1-c1ccc(C(C)C)cc1` displayed a melting point of 253 to 254 °C.

For the molecule `N#Cc1c(N2CCN(C(=O)c3cccs3)CC2)c2cc(Cl)ccc2n(Cc2ccc(F)cc2)c1=O`, the melting point was determined as 253 °C.

For `C=CCO[C@H]1[C@@H](OCc2ccccc2)[C@@H](OCc2ccccc2)[C@H](OCc2ccccc2)[C@@H](OCc2ccccc2)[C@]1(O)CC=C` (racemic), the melting point amounted to 97.5 °C.

As for `Fc1cccc2c(NCCc3nc(-c4ccccc4)cs3)ccnc12`, the melting point lay in the range of 134 to 135 °C.

For the molecule `CC1CCC2=NNC(=O)CC2C1` (stereo not drawn), the melting point lay in the range of 116 to 118 °C.

For `NC(=O)c1cc(-n2cncn2)ccc1N`, the melting point is 216 to 218 °C.

The molecule `CCOC(=O)NNc1ccc(-c2ccc(Cl)cc2)nn1` gave a melting point of 190 to 192 °C.

For the molecule `COCCCNS(=O)(=O)NC(=O)OCCCc1ccc(OCCOC)cc1Oc1ncc(Cl)cc1Cl`, the melting point fell in the range of 87.9 to 89 °C.

`CCOc1cc(CC)ccc1C1CCN(CCCCNC(=O)c2ccc(-c3ccc(S(C)(=O)=O)cc3)cc2)CC1`: the melting point is 179 to 180 °C.

Molecule `COc1ccc2c(c1)CCNC(=O)C2` showed a melting point of 152 to 154 °C.

Turning to `O=S(=O)(c1ccccc1)N1CCC(C(=NCc2ccc(F)cc2)c2ccc(F)cc2)CC1`, the melting point fell in the range of 114 to 116 °C.

With `CC[C@H]1COC(=O)N1c1nc(-c2ccc(Br)cc2)cs1`, the melting point lay within 138 to 140 °C.

`BrCCCCCCOc1ccc(C2=NCCO2)cc1`: the melting point is 79 to 81 °C.

`COC(=O)C1=Cc2cccc(C=O)c2OCC1` displayed a melting point of 122 to 124 °C.

In turn, `COC(=O)C(O)C(Sc1ccc2ccccc2c1N)c1ccc(OC)cc1` (stereo not drawn) displayed a melting point of 132 to 134 °C.

Regarding `Nc1ncc2ncn([C@@H]3C[C@H](O)[C@@H](O)[C@H]3O)c2n1` (racemic), the melting point lay within 153 to 155 °C.

`COC[C@@H](C)n1cc(Cl)nc(N2CCc3cc(Br)cc(Br)c32)c1=O`: the melting point was 119 to 120 °C.

For the molecule `CON(Cc1ccccc1C)C(=O)C1=C(O)C(=O)N(C)C1`, the melting point is 153 to 154 °C.

The molecule `O=C1c2ccccc2C(=O)C1c1cccc([N+](=O)[O-])c1` came in with a melting point of 216 to 226 °C.

For `CCCCCn1c2ccccc2c2cc(C(=O)NN3CCCCC3)ccc21`, the melting point was 158 to 159 °C.

The molecule `Cn1nnnc1CC(=S)NCCc1ccc(OCc2ccccc2)c(OCc2ccccc2)c1` showed a melting point of 110 °C.

As to `COc1cc(C=C(C(=O)NC2CCC(C)CC2)c2ccccc2)ccc1OC(C)=O` (stereo not drawn), the melting point fell in the range of 136 to 140 °C.

Regarding `O=[N+]([O-])c1cc(C(O)CN2CCN(C(c3ccccc3)c3ccccc3)CC2)ccc1Cl` (stereo not drawn), the melting point was determined as 163 °C.

Molecule `COC(=O)c1ccc(Oc2ccc(N3CCN(c4ccncc4)CC3)cc2)nc1` yielded a melting point of 143 to 144 °C.

Molecule `CCc1cc(C(=O)O)c(Nc2ccc(F)cc2[N+](=O)[O-])s1` registered a melting point of 198 to 200 °C.

For `O=C(CCCCCl)c1cccc2cc3c(C(=O)CCCCCl)cccc3cc12`, the melting point lay within 146 to 148 °C.

As to `O=C(c1ccc(F)cc1)C1CCN(CCN(C(=O)c2ccc([N+](=O)[O-])cc2)c2cccc(C(F)(F)F)c2)CC1`, the melting point is 123 to 137 °C.

Molecule `COc1ccccc1CNc1ccc2c(CNC(=O)c3ccc(F)cc3)cccc2n1` displayed a melting point of 162 °C.

Consider `CCc1cccc(C)c1CNc1cc(CO)cn2nc(C)nc12`, for which the melting point was found to be 180 °C.

`O=C(O)c1noc(-c2cnccc2C(F)(F)F)n1` registered a melting point of 157 to 159 °C.

`COc1cc(/C=C/C(=O)Nc2ccc(Br)cc2)ccc1F` yielded a melting point of 163 to 165 °C.

In turn, `COc1cc(C(=O)C#CCOCC=C(C)C)cc(OC)c1OC` showed a melting point of 32 °C.

Consider `COCc1cccc(C(=O)c2nc(OC)cc(OC)n2)c1[N+](=O)[O-]`, for which the melting point was 111 to 113 °C.

As for `CC(C)(C)C(NC(=O)C(=O)Nc1cccnc1)NC(=O)c1ccc(Cl)cc1` (stereo not drawn), the melting point was in the range of 168 to 170 °C.

Molecule `O=C(NCC(=O)c1cccs1)c1ccc(Cl)cc1` had a melting point of 157 to 159 °C.

`COC(=O)c1ccc(OCCCCCCc2cccc(OCc3ccccc3)c2OCc2ccccc2)c(Cl)c1` returned a melting point of 68 to 69 °C.

Regarding `Cc1cc(-c2nc3cccnn3c2-c2ccnc(NC(=O)c3ccoc3)c2)ccc1F`, the melting point was in the range of 199 to 200 °C.

`CC(=O)Nc1cccc2c1CCN(C(C)=O)C2`: the melting point lay in the range of 154 to 156 °C.

In turn, `CN(C)CCCCC1CCCCN1C(=O)N1c2ccccc2C(=O)Nc2cccnc21` (stereo not drawn) displayed a melting point of 145 to 147 °C.

For `CCOC(=O)c1cn(C)cc(-c2ccccc2)c1=O`, the melting point is 107 to 108 °C.

On to `COc1ccc(-c2cc(Br)c3cc(OC)ccc3n2)cc1`, for which the melting point lay in the range of 157 to 158 °C.

`NC(=O)c1c(-c2cnccn2)ssc1=S` registered a melting point of 267 °C.

As for `O=C(O)C=Cc1cccc(Oc2ccccc2)c1`, the melting point lay within 107 to 109 °C.

Take `CC(=O)Oc1ccc(-c2c(C)c3cccc(OC(C)=O)c3oc2=O)c(OC(C)=O)c1`: the melting point lay within 119 to 120 °C.

`CN1CCC(c2cccc3ccc(N)cc23)CC1`: the melting point was 170 to 171 °C.

On to `COC1=CC(=O)C(O)=C(CCCCCCC/C=C\CCCCCCCC2=C(O)C(=O)C(C)=C(OC)C2=O)C1=O`, for which the melting point was 88 to 90 °C.

In the case of `Cc1ccc2nc(-c3ccccc3)cc(OCc3ccccc3)c2c1`, the melting point is 139 °C.

`CC(C)(C)c1ccc2oc(-c3ccc(O)cc3)cc2c1` registered a melting point of 172 to 174 °C.

`O=C(NN=Cc1c(O)cccc1Cl)c1ccc(Cl)cc1` yielded a melting point of 273 to 277 °C.

Regarding `CC12OCC(CO)(CO1)CO2`, the melting point is 110 to 112 °C.

Molecule `Cc1oc(-c2ccccc2)nc1COc1ccc(C(=O)c2ccccc2OC(C)C(=O)O)cc1` (stereo not drawn) returned a melting point of 186 to 187 °C.

`FC(F)(F)c1c(Cl)c(Cl)c(C=S)c(Cl)c1Cl` gave a melting point of 98.5 to 100 °C.

Take `CCOC(=O)N(c1ccc(Cl)cc1N)c1ccc(Cl)cc1Cl`: the melting point fell in the range of 137 to 139 °C.

Molecule `COc1ccc(-c2cc[nH]c(=O)n2)cc1OC1CC2CCC1C2` (stereo not drawn) yielded a melting point of 220 °C.

`C=CCN(CC(N)=O)S(=O)(=O)Cc1cccc(C(F)(F)F)c1` displayed a melting point of 91 to 92 °C.

In the case of `Oc1cccc(Oc2ccc(Cl)nn2)c1`, the melting point lay in the range of 185 to 187 °C.

Molecule `CCOC(=O)CCCC1CCN(CCOC(c2ccccc2)c2ccc(Cl)cc2)CC1` (stereo not drawn) gave a melting point of 117 to 119 °C.

`Cc1c(-c2ccccc2)oc2c(C(=O)OCC3CO3)cccc2c1=O` (stereo not drawn) yielded a melting point of 103 to 105 °C.

`Fc1ccc(Nc2ccnc(Cl)n2)cc1` displayed a melting point of 172 to 174 °C.

`CNC(=O)c1cc(F)c(Cl)cc1F` registered a melting point of 128 °C.

Regarding `COc1cccc2c(CCCCNC3COc4c(F)ccc(C(N)=O)c4C3)coc12` (stereo not drawn), the melting point was in the range of 138 to 141 °C.

On to `NC(=O)c1nc2cnc3ccccc3c2[nH]1`, for which the melting point lay within 326 to 328 °C.

Take `Nc1sc2c(c1C(=O)c1cccc3ccccc13)CCN(Cc1ccccc1)C2`: the melting point fell in the range of 178 to 180 °C.

For `CNc1ccc2n[nH]c(=O)n2n1`, the melting point was above 348 °C.

As for `O=Cc1csc(N(c2ccccc2)c2ccccc2)n1`, the melting point lay in the range of 160 to 161 °C.

For `O=C(O)c1nc(Sc2ccccc2)ccc1Sc1ccccc1`, the melting point fell in the range of 131 to 132 °C.

For the molecule `COC(=O)c1ccc(-c2cccc(CO)c2)cc1`, the melting point lay in the range of 88 to 89 °C.

With `O=C(CC1Sc2ccccc2NC1=O)NCc1ccccc1` (stereo not drawn), the melting point lay within 238 to 240 °C.

`COC(=O)c1ccc(CBr)c(SC(=O)c2ccc(C(C)(C)C)cc2)c1` had a melting point of 152 °C.

As to `CCN(CC)CCN1CCN(c2ccc(N3C[C@H](CNC(C)=O)OC3=O)cc2F)CC1`, the melting point was in the range of 131 to 133 °C.

`Cc1cccc(-c2nc3c(C)cccc3[nH]2)c1[N+](=O)[O-]`: the melting point lay in the range of 186 to 188 °C.

For `Nc1cc(C(F)(F)F)ccc1NC1CCCCC1`, the melting point turned out to be 70 °C.

`Cc1scc2c1N(C(=O)Cl)c1ccccc1NC2=O`: the melting point lay in the range of 238 to 239 °C.

The molecule `O=C(Nc1cccc(Cl)c1)ONC1=Nc2ccc([N+](=O)[O-])cc2C(c2ccccc2Cl)=NC1` displayed a melting point of 130 to 135 °C.

Consider `Cc1nc(-c2ccccc2)oc1C(N)=O`, for which the melting point lay within 187 to 190 °C.

`CSC(=O)C(=O)c1ccnc(NC=O)c1` came in with a melting point of 165 to 167 °C.

With `O=[N+]([O-])c1ccc(Cc2nnco2)cc1`, the melting point lay within 104 to 105 °C.
